# In ChEMBL document CHEMBL4190403, “Design, synthesis, and biological evaluation of pyrazole derivatives containing acetamide bond as potential BRAFV600E inhibitors” (Bioorg Med Chem Lett, 2018):
# The source made the active and inactive calls. The calls are words filed in the database; no cut-off is given here.
# Assays:
# [1] = biological target: Serine/threonine-protein kinase B-raf (Mus musculus, UniProt P28028, V600E); assay: Inhibition of full-length GST-tagged mouse BRAF V600E mutant using recombinant human full length N-terminal His-tagged MEK1 as substrate preincubated for 1 hr followed by substrate addition measured after 25 mins by Nu-page gel-based phosphor screen analysis
# Sequence of Serine/threonine-protein kinase B-raf (P28028 whole entry, looked up, stated change not applied): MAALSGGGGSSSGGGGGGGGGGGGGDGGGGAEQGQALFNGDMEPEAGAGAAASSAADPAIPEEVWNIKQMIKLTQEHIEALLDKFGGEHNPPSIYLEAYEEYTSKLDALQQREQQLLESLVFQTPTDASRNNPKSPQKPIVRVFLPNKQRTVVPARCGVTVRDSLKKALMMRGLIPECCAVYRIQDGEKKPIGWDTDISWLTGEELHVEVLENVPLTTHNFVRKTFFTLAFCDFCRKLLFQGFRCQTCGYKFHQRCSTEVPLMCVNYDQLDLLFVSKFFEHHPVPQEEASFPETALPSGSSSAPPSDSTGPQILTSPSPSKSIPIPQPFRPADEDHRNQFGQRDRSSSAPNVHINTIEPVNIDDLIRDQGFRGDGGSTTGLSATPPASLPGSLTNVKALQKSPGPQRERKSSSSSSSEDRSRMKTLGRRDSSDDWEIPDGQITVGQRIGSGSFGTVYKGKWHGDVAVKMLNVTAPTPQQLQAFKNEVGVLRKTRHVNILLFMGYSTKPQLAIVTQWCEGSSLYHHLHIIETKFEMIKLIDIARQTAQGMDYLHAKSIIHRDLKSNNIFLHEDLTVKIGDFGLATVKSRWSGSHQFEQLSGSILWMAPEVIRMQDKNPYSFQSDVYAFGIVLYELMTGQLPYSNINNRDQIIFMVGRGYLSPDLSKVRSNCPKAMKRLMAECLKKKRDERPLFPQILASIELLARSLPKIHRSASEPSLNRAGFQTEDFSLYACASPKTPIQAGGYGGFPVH
# HT-29 = assay: Antiproliferative activity against human HT-29 cells harboring BRAF V600E mutant after 24 hrs by MTT assay; assay type: functional, cell-based; settings: HT-29, 24 h
# A-375 [2] = assay: Antiproliferative activity against human A375 cells harboring BRAF V600E mutant after 24 hrs by MTT assay; assay type: functional, cell-based; settings: A-375, 24 h
# [3] = Antiproliferative activity against human WM1361 cells harboring wild-type BRAF after 48 hrs by MTT assay; assay type: functional, cell-based; settings: WM1361, 48 h
# A-375 [4] = assay: Induction of apoptosis in human A375 cells assessed as early apoptotic cells at 1 uM after 24 hrs by Annexin V-FITC/propidium iodide staining based flow cytometry (reference value: 1.22 to 1.64%); assay type: functional
# A-375 [5] = assay: Induction of apoptosis in human A375 cells assessed as viable cells at 1 uM after 24 hrs by Annexin V-FITC/propidium iodide staining based flow cytometry (reference value: 90.6 to 94.3%); assay type: functional; settings: A-375, 24 h, read-out: Activity
# A-375 [6] = assay: Induction of apoptosis in human A375 cells assessed as necrotic cells at 3 uM after 24 hrs by Annexin V-FITC/propidium iodide staining based flow cytometry (reference value: 0.635 to 3.12%); assay type: functional
# A-375 [7] = assay: Induction of apoptosis in human A375 cells assessed as late apoptotic cells at 3 uM after 24 hrs by Annexin V-FITC/propidium iodide staining based flow cytometry (reference value: 3.80 to 4.61%); assay type: functional
# A-375 [8] = assay: Induction of apoptosis in human A375 cells assessed as early apoptotic cells at 3 uM after 24 hrs by Annexin V-FITC/propidium iodide staining based flow cytometry (reference value: 1.22 to 1.64%); assay type: functional
# A-375 [9] = assay: Induction of apoptosis in human A375 cells assessed as viable cells at 3 uM after 24 hrs by Annexin V-FITC/propidium iodide staining based flow cytometry (reference value: 90.6 to 94.3%); assay type: functional; settings: A-375, 24 h, read-out: Activity
# A-375 [10] = assay: Induction of apoptosis in human A375 cells assessed as necrotic cells at 10 uM after 24 hrs by Annexin V-FITC/propidium iodide staining based flow cytometry (reference value: 0.635 to 3.12%); assay type: functional
# A-375 [11] = assay: Induction of apoptosis in human A375 cells assessed as late apoptotic cells at 10 uM after 24 hrs by Annexin V-FITC/propidium iodide staining based flow cytometry (reference value: 3.80 to 4.61%); assay type: functional
# A-375 [12] = assay: Induction of apoptosis in human A375 cells assessed as viable cells at 10 uM after 24 hrs by Annexin V-FITC/propidium iodide staining based flow cytometry (reference value: 90.6 to 94.3%); assay type: functional; settings: A-375, 24 h, read-out: Activity
# A-375 [13] = assay: Induction of apoptosis in human A375 cells assessed as late apoptotic cells at 3 uM after 12 hrs by Annexin V-FITC/propidium iodide staining based flow cytometry (reference value: 3.80 to 4.61%); assay type: functional
# A-375 [14] = assay: Induction of apoptosis in human A375 cells assessed as early apoptotic cells at 3 uM after 12 hrs by Annexin V-FITC/propidium iodide staining based flow cytometry (reference value: 1.22 to 1.64%); assay type: functional
# A-375 [15] = assay: Induction of apoptosis in human A375 cells assessed as viable cells at 3 uM after 12 hrs by Annexin V-FITC/propidium iodide staining based flow cytometry (reference value: 90.6 to 94.3%); assay type: functional; settings: A-375, 12 h, read-out: Activity
# A-375 [16] = assay: Induction of apoptosis in human A375 cells assessed as necrotic cells at 3 uM after 36 hrs by Annexin V-FITC/propidium iodide staining based flow cytometry (reference value: 0.635 to 3.12%); assay type: functional
# A-375 [17] = assay: Induction of apoptosis in human A375 cells assessed as viable cells at 3 uM after 36 hrs by Annexin V-FITC/propidium iodide staining based flow cytometry (reference value: 90.6 to 94.3%); assay type: functional; settings: A-375, 36 h, read-out: Activity
# A-375 [18] = assay: Cell cycle arrest in human A375 cells assessed as accumulation at G1 phase at 1 uM after 24 hrs by propidium iodide staining-based flow cytometry (reference value: 59.02 to 60.22%); assay type: functional
# A-375 [19] = assay: Cell cycle arrest in human A375 cells assessed as accumulation at S phase at 1 uM after 24 hrs by propidium iodide staining-based flow cytometry (reference value: 20.08 to 31.09%); assay type: functional
# A-375 [20] = assay: Cell cycle arrest in human A375 cells assessed as accumulation at G2/M phase at 1 uM after 24 hrs by propidium iodide staining-based flow cytometry (reference value: 7.91 to 21.07%); assay type: functional
# A-375 [21] = assay: Cell cycle arrest in human A375 cells assessed as accumulation at S phase at 10 uM after 24 hrs by propidium iodide staining-based flow cytometry (reference value: 20.08 to 31.09%); assay type: functional
# A-375 [22] = assay: Cell cycle arrest in human A375 cells assessed as accumulation at G1 phase at 3 uM after 12 hrs by propidium iodide staining-based flow cytometry (reference value: 59.02 to 60.22%); assay type: functional
# A-375 [23] = assay: Cell cycle arrest in human A375 cells assessed as accumulation at S phase at 3 uM after 12 hrs by propidium iodide staining-based flow cytometry (reference value: 20.08 to 31.09%); assay type: functional
# A-375 [24] = assay: Cell cycle arrest in human A375 cells assessed as accumulation at G2/M phase at 3 uM after 12 hrs by propidium iodide staining-based flow cytometry (reference value: 7.91 to 21.07%); assay type: functional
# A-375 [25] = assay: Cell cycle arrest in human A375 cells assessed as accumulation at G1 phase at 3 uM after 36 hrs by propidium iodide staining-based flow cytometry (reference value: 59.02 to 60.22%); assay type: functional
# A-375 [26] = assay: Cell cycle arrest in human A375 cells assessed as accumulation at S phase at 3 uM after 36 hrs by propidium iodide staining-based flow cytometry (reference value: 20.08 to 31.09%); assay type: functional
# A-375 [27] = assay: Cell cycle arrest in human A375 cells assessed as accumulation at G2/M phase at 3 uM after 36 hrs by propidium iodide staining-based flow cytometry (reference value: 7.91 to 21.07%); assay type: functional
# A-375 [28] = assay: Induction of apoptosis in human A375 cells assessed as reduction in mitochondrial membrane potential up to 8 uM after 12 hrs using JC-1 staining-based flow cytometry; assay type: functional, cell-based
# A-375 [29] = assay: Induction of apoptosis in human A375 cells after 24 hrs by Annexin V-FITC/propidium iodide staining based flow cytometry; assay type: functional, cell-based
# A-375 [30] = assay: Induction of apoptosis in human A375 cells at 3 uM by Annexin V-FITC/propidium iodide staining based flow cytometry; assay type: functional, cell-based; settings: TDE = time-dependent effect
# A-375 [31] = assay: Cell cycle arrest in human A375 cells assessed as accumulation at G1 phase after 24 hrs by propidium iodide staining-based flow cytometry; assay type: functional
# A-375 [32] = assay: Cell cycle arrest in human A375 cells assessed as accumulation at G1 phase at 3 uM by propidium iodide staining-based flow cytometry; assay type: functional; settings: TDE = time-dependent effect
structure (smiles),measurement,setting,value
COc1ccc(-n2cc(NC(=O)Cn3ccc(-c4cccc(Cl)c4)n3)cn2)cc1,IC50,[1],100 nM
same,IC50,HT-29,2170 nM
same,IC50,A-375 [2],960 nM
same,IC50,[3],10.2 µM
same,Activity,A-375 [4],1.92%
same,viability at 1 µM,A-375 [5],79.5%
same,Activity,A-375 [6],2.89 - 4.99%
same,Activity,A-375 [7],19.1 - 29.2%
same,Activity,A-375 [8],3.01 - 3.25%
same,viability at 3 µM,A-375 [9],64.7 to 72.9%
same,Activity,A-375 [10],7.54%
same,Activity,A-375 [11],37.5%
same,viability at 10 µM,A-375 [12],53.2%
same,Activity,A-375 [13],19.7%
same,Activity,A-375 [14],5.22%
same,viability at 3 µM,A-375 [15],65.3%
same,Activity,A-375 [16],5.58%
same,viability at 3 µM,A-375 [17],32.8%
same,Activity,A-375 [18],50.93%
same,Activity,A-375 [19],29.07%
same,Activity,A-375 [20],15.89%
same,Activity,A-375 [21],47.03%
same,Activity,A-375 [22],51.08%
same,Activity,A-375 [23],35.98%
same,Activity,A-375 [24],11.44%
same,Activity,A-375 [25],35.56%
same,Activity,A-375 [26],52.38%
same,Activity,A-375 [27],10.06%
same,Activity,A-375 [28],Active
same,Activity,A-375 [29],Dose-dependent effect
same,Activity,A-375 [30],Tde
same,Activity,A-375 [31],Dose-dependent effect
same,Activity,A-375 [32],Tde
